Experiments:
Cyperus iria = assay: Preemergence weed control under flooded paddy conditions, CYPIR (Rice Flatsedge); assay type: in vivo; conditions: flooded paddy; for herbicidal effect rating, CYPIR: rated three to four weeks after treatment; for CYPIR: herbicidal effect rating 0-9, three to four weeks after treatment; for herbicidal effect rating, CYPIR: meaning of each grade not given here
[1] = test system: Echinochloa oryzoides (Ard.) Fritsch.; assay: Preemergence weed control under flooded paddy conditions, ECHORC (Watergrass (Calif.)); assay type: in vivo; conditions: flooded paddy; for herbicidal effect rating, ECHORC: rated three to four weeks after treatment; for ECHORC: herbicidal effect rating 0-9, three to four weeks after treatment; for herbicidal effect rating, ECHORC: meaning of each grade not given here
[2] = test system: Oryza sativa, (L.) Tebonnet; assay: Rice tolerance to post-transplant applications under flooded paddy conditions (Example 187), ORYSAT (Rice, Tebonnet); conditions: for herbicidal effect rating ORYSAT: rated three to four weeks after treatment; for ORYSAT: herbicidal effect rating 0-9, three to four weeks after treatment
Sagittaria pygmaea, L. = assay: Preemergence weed control under flooded paddy conditions, SAGPY (Arrowhead (Pygmaea)); assay type: in vivo; conditions: flooded paddy; for herbicidal effect rating, SAGPY: rated three to four weeks after treatment; for SAGPY: herbicidal effect rating 0-9, three to four weeks after treatment; for herbicidal effect rating, SAGPY: meaning of each grade not given here
[3] = test system: Cyperus serotinus, Rottb.; assay: Preemergence weed control under flooded paddy conditions, CYPSE (Flatsedge); assay type: in vivo; conditions: for herbicidal effect rating, CYPSE: rated three to four weeks after treatment; for CYPSE: herbicidal effect rating 0-9, three to four weeks after treatment; for herbicidal effect rating, CYPSE: meaning of each grade not given here
[4] = Rate 0.0320 kg/ha, preemergence weeds
[5] = Rate 0.0620 kg/ha, preemergence weeds
[6] = Rate 0.1250 kg/ha, preemergence weeds
[7] = Rate 0.2500 kg/ha, preemergence weeds
[8] = 0.0320 kg/ha, preemergence weeds
[9] = 0.0620 kg/ha, preemergence weeds
[10] = 0.1250 kg/ha, preemergence weeds
[11] = 0.2500 kg/ha, preemergence weeds
[12] = Rate 0.0320 kg/ha, preemergence
[13] = Rate 0.0620 kg/ha, preemergence
[14] = Rate 0.1250 kg/ha, preemergence
[15] = Rate 0.2500 kg/ha, preemergence

CC(Br)c1nsc2ccc(-n3c(=O)cc(C(F)(F)F)n(C)c3=O)cc12 (centres unmarked) [Example 339, 2,4(1H,3H)-Pyrimidinedione, 3-[3-(1-bromoethyl)-1,2-benzisothiazol-5-yl]-1-methyl-6-(trifluoromethyl)-]
herbicidal effect rating, CYPIR (Cyperus iria; [4]): 4.0 | herbicidal effect rating, CYPIR (Cyperus iria; [5]): 4.0 | herbicidal effect rating, CYPIR (Cyperus iria; [6]): 7.0 | herbicidal effect rating, CYPIR (Cyperus iria; [7]): 7.0 | herbicidal effect rating, ECHORC [1, 4]: 0.0 | herbicidal effect rating, ECHORC [1, 5]: 0.0 | herbicidal effect rating, ECHORC [1, 6]: 4.0 | herbicidal effect rating, ECHORC [1, 7]: 6.0 | herbicidal effect rating ORYSAT ([2]; Rate 0.0320 kg/ha): 5.0 | herbicidal effect rating ORYSAT ([2]; Rate 0.0620 kg/ha): 7.0 | herbicidal effect rating ORYSAT ([2]; Rate 0.1250 kg/ha): 9.0 | herbicidal effect rating ORYSAT ([2]; Rate 0.2500 kg/ha): 9.0 | herbicidal effect rating, SAGPY (Sagittaria pygmaea, L.; [4]): 5.0 | herbicidal effect rating, SAGPY (Sagittaria pygmaea, L.; [5]): 5.0 | herbicidal effect rating, SAGPY (Sagittaria pygmaea, L.; [6]): 5.0 | herbicidal effect rating, SAGPY (Sagittaria pygmaea, L.; [7]): 9.0 | herbicidal effect rating, CYPSE [3, 4]: 0.0 | herbicidal effect rating, CYPSE [3, 5]: 0.0 | herbicidal effect rating, CYPSE [3, 6]: 6.0 | herbicidal effect rating, CYPSE [3, 7]: 9.0

CC(c1ccccc1)S(=O)(=O)NC(=O)c1nsc2ccc(-n3c(=O)cc(C(F)(F)F)n(C)c3=O)cc12 (stereo not drawn) [Example 427, 1,2-Benzisothiazole-3-carboxamide, 5-[3,6-dihydro-3-methyl-2,6-dioxo-4-(trifluoromethyl)-1(2H)-pyrimidinyl]-N-[(alpha-methylbenzyl)-sulfonyl]-]
CYPIR (Cyperus iria; [8]): 7.0 | CYPIR (Cyperus iria; [9]): 7.0 | CYPIR (Cyperus iria; [10]): 7.0 | CYPIR (Cyperus iria; [11]): 9.0 | ECHORC [1, 8]: 7.0 | ECHORC [1, 9]: 7.0 | ECHORC [1, 10]: 9.0 | ECHORC [1, 11]: 9.0 | ORYSAT ([2]; 0.0320 kg/ha): 0.0 | ORYSAT ([2]; 0.0620 kg/ha): 0.0 | ORYSAT ([2]; 0.1250 kg/ha): 1.0 | ORYSAT ([2]; 0.2500 kg/ha): 3.0 | SAGPY (Sagittaria pygmaea, L.; [8]): 4.0 | SAGPY (Sagittaria pygmaea, L.; [9]): 5.0 | SAGPY (Sagittaria pygmaea, L.; [10]): 6.0 | SAGPY (Sagittaria pygmaea, L.; [11]): 9.0 | CYPSE [3, 8]: 0.0 | CYPSE [3, 9]: 0.0 | CYPSE [3, 11]: 4.0

CCC(=O)COC(=O)COc1ccc(C)cc1-c1nsc2ccc(-n3c(=O)cc(C(F)(F)F)n(C)c3=O)cc12 [Example 577, Acetic acid, {{2-{5-[3,6-dihydro-3-methyl-2,6-dioxo-4-(trifluoromethyl)-1(2H)-pyrimidinyl]-1,2-benzisothiazol-3-yl}-p-tolyl}oxy}-, 2-oxobutyl ester]
herbicidal effect rating, CYPIR (Cyperus iria; [12]): 2.0 | herbicidal effect rating, CYPIR (Cyperus iria; [13]): 4.0 | herbicidal effect rating, CYPIR (Cyperus iria; [14]): 7.0 | herbicidal effect rating, CYPIR (Cyperus iria; [15]): 9.0 | herbicidal effect rating, ECHORC [1, 12]: 6.0 | herbicidal effect rating, ECHORC [1, 13]: 7.0 | herbicidal effect rating, ECHORC [1, 14]: 7.0 | herbicidal effect rating, ECHORC [1, 15]: 9.0 | herbicidal effect rating ORYSAT ([2]; Rate 0.0320 kg/ha): 4.0 | herbicidal effect rating ORYSAT ([2]; Rate 0.0620 kg/ha): 5.0 | herbicidal effect rating ORYSAT ([2]; Rate 0.1250 kg/ha): 5.0 | herbicidal effect rating ORYSAT ([2]; Rate 0.2500 kg/ha): 9.0 | herbicidal effect rating, SAGPY (Sagittaria pygmaea, L.; [12]): 4.0 | herbicidal effect rating, SAGPY (Sagittaria pygmaea, L.; [13]): 6.0 | herbicidal effect rating, SAGPY (Sagittaria pygmaea, L.; [14]): 6.0 | herbicidal effect rating, SAGPY (Sagittaria pygmaea, L.; [15]): 6.0 | herbicidal effect rating, CYPSE [3, 12]: 0.0 | herbicidal effect rating, CYPSE [3, 13]: 3.0 | herbicidal effect rating, CYPSE [3, 14]: 3.0 | herbicidal effect rating, CYPSE [3, 15]: 3.0

Source: EP0908457B1, “3-(1,2-benzisothiazol- and isoxazol-5-Y1)-2,4(1H,3H)-pyrimidinedione or thione and 3-(1,2-benzisothiazol- and isoxazol-5-y1)-4(3H)-pyrimidinone or thione herbicidal agents” (BASF AKTIENGESELLSCHAFT, priority 1997, dated 1999)
